Data set [1] is described as follows: Pharmacokinetic studies in the mouse (i.v. clearance, plasma levels). It counts as in vivo. As to conditions: for clearance: CD-1, plasma; for clearance / concentration at 2 min: iv; for concentration at 2 min: plasma, read-out: mean plasma level at 2 minutes. Summed up: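 Male CD-1 mice (26-31 g) given 25 mg/kg i.v. via tail vein in 0.02M Tris (2.5 mg/ml), groups of 5 per timepoint from 2 to 120 min. Heparinized plasma deproteinated (perchloric acid or acetonitrile) and analysed by reverse-phase HPLC with UV or MS detection against plasma-spiked calibration (0.5 to 50 μg/ml).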

The subject of data set [2] is IL-1β production, LPS-challenged mice. Put plainly: In vivo acute assay for efficacy as anti-inflammatory agent: LPS-induced IL-1β production in mice. Also noted: species or system mouse. As to conditions: for IP % Inhibition / POS Inhibition: % inhibition of IL-β production, 50 mg/kg (Table 3); for percent inhibition of IL-1β production / inhibition at 50 mg/kg: compound PO; for inhibition of IL-1β secretion/production after IP administration: LPS-challenged CD1 mice, IP injection one hour after LPS; for inhibition at 50 mg/kg: po, read-out: percent inhibition of IL-1β production. A digest of the protocol:
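CD1 mice (n=6) were challenged with LPS 20 mg/kg IP and given compound IP in olive oil:DMSO:ethanol (90:5:5) 1 h after LPS, or at the time of challenge for some analogs. Blood was taken 7 h after LPS and serum IL-1β was measured by ELISA. Oral gavage at 50 mg/kg was also tested.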

Data set [3] is described as follows: In vivo rat clearance assay. As to conditions: for clearance: plasma, iv. A digest of the protocol: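 Rats cannulated a day beforehand received 10–20 mg/kg by intravenous jugular dosing in propylene glycol/saline with 100 mM sodium bicarbonate. Carotid blood was sampled from 0 to 90 min, and plasma was extracted with acetonitrile/0.1% TFA for HPLC quantification. Clearance from non-linear regression pharmacokinetic analysis.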

The target in another data set is T1, ICE (Homo sapiens, UniProt P29466).
T1 sequence (P29466 120-297 limits assumed): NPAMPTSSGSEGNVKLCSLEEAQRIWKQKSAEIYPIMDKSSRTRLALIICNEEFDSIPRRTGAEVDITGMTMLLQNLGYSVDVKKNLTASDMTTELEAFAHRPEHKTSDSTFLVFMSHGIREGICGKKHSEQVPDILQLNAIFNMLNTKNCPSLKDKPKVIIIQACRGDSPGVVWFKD
T1 sequence (P29466 317-404 limits assumed): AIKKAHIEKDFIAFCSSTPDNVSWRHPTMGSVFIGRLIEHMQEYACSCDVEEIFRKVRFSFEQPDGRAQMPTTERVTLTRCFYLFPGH
The data set can be described thus: Enzyme assay with UV-visible substrate (visible ICE assay, Succinyl-Tyr-Val-Ala-Asp-pNitroanilide). It counts as biochemical. A digest of the protocol: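 ICE preincubated with inhibitor in DMSO for 15 min at room temperature, then Suc-Tyr-Val-Ala-Asp-pNA added. pNA release read at 405-603 nm for 20 min at 37 °C, rate from linear fit in mOD/min. Ki and inhibition mode from fits of rates at varying inhibitor concentrations to standard kinetic equations.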

The mark [4] stands for this setting: male CD-1 mice, i.v. tail vein, 25 mg/kg.
Where [5] appears, read: mouse, male CD-1 mice, i.v. tail vein, 25 mg/kg.
The mark [6] stands for this setting: LPS challenged mice, PO, 50 mg/kg, * = values obtained in subsequent assays (Table 4).
Where [7] appears, read: Mus musculus, 1 h, LPS challenged mice, 50 mg/kg, administered −1 h relative to time of LPS challenge.
[8] abbreviates: Mus musculus, 2 h, LPS challenged mice, 50 mg/kg, administered −2 h relative to time of LPS challenge.
Setting [9] is: Mus musculus, 0 h, LPS challenged mice, 50 mg/kg, administered 0 h relative to time of LPS challenge.
Where [10] appears, read: Mus musculus, 1 h, LPS challenged mice, 50 mg/kg, administered +1 h relative to time of LPS challenge.

Experimental findings from patent US20120165319A1, “INHIBITORS OF INTERLEUKIN-1 BETA CONVERTING ENZYME” (VERTEX PHARMACEUTICALS INCORPORATED, priority 1995, published 2012) are described below.

Several values for one entry are separate records, joined by “and”; a condition that tells them apart may be missing. Identical values can stand only once. Entries after “also recorded” stand apart in the source; their conditions may differ. Like-named read-outs stand apart in the source and are kept apart here.

`O=C(O)C[C@H](NC(=O)[C@@H]1CCCN2C(=O)CC[C@H](NC(=O)OCc3ccccc3)C(=O)N12)C(=O)COC(=O)c1c(Cl)cccc1Cl` [Compound 217d, [3S(1S,9S)]3-(9-Benzyloxycarbonylamino-6,10-dioxo-1,2,3,4,7,8,9,10-octahydro-6H-pyridazino[1,2-a][1,2]-diazepine-1-carboxamido)-5-(2,6-dichlorobenzoyloxy)-4-oxopentanoic acid] registered a melting point of 85 to 110 °C.
For `O=C[C@H](CC(=O)O)NC(=O)[C@@H]1CCCN2C(=O)CC[C@H](NC(=O)c3ccccc3)C(=O)N12` [Compound 214e, [3S(1S,9S)]3-(9-Benzoylamino-6,10-dioxo-1,2,3,4,7,8,9,10-octahydro-6H-pyridazino[1,2-a][1,2]-diazepine-1-carboxamido)-4-oxobutanoic acid], the clearance in data set [1] (mouse, 25 mg/kg) was determined as 23 mL/min/kg; in data set [3] (10-20 mg/kg) it was 12 mL/min/kg. Further, the “mean plasma level at 90 and 120 minutes” value in data set [1] (setting [4]) was below 2 µg/mL. In addition, in data set [1] (setting [5]), the concentration at 2 min turned out to be 70 µg/mL. Also, in data set [2] (LPS-challenged mice), the “IP % Inhibition” value turned out to be 78%. The “POS Inhibition” value in data set [2] (LPS-challenged mice, PO) is 75%. Further, the “Inhibition of IL-1β Production, compound administered 0 hr relative to LPS challenge” value in data set [2] (setting [6]) is 48* % and 80* %. Besides, the “Inhibition of IL-1β Production, compound administered −1 hr relative to LPS challenge” value in data set [2] (setting [6]) is recorded as 44* %. The “Inhibition of IL-1β Production, compound administered −2 hr relative to LPS challenge” value in data set [2] (setting [6]) was 43* % and 39* %. In addition, the “percent inhibition of IL-1β production” value was 70% and 48% in data set [2] (LPS challenged mice, 50 mg/kg, administered 0 h relative to time of LPS challenge); 43% in data set [2] (LPS challenged mice, 50 mg/kg, administered −2 h relative to time of LPS challenge). For the same compound, the “inhibition of IL-1β secretion/production after IP administration” value in data set [2] (result in words) is given as “dose dependent inhibition; also recorded: inhibit IL-1β production”. Also, in data set [2] (LPS-challenged mice, oral gavage, 50 mg/kg, result in words), the “inhibition of IL-1β secretion/production after oral (PO) administration” value was “inhibited IL-1β secretion; also recorded: inhibit IL-1β production”. In addition, the inhibition at 50 mg/kg in data set [2] (setting [7]) stood at 44%; in data set [2] (setting [8]), 39%. Further, the ED50 in data set [2] (Mus musculus, CD1 mice, LPS 20 mg/kg IP, compound IP one hour after LPS, blood seven hours after LPS, read-out: ED50, inhibition of IL-1β secretion) is around 15 mg/kg. The compound further gave an inhibition constant (Ki) on ICE (Table 5) of 7.5 nM.
Regarding `O=C[C@H](CC(=O)O)NC(=O)[C@@H]1CCCN2C(=O)CC[C@H](NC(=O)CCc3ccccc3)C(=O)N12` [Compound 47a, [3S(1S,9S)]3-(6,10-Dioxo-octahydro-9-(3-phenylpropionylamino)-6H-pyridazino[1,2-a][1,2]diazepine-1-carboxamido)-4-oxobutanoic acid], the clearance was 79 mL/min/kg in data set [1] (mouse, 25 mg/kg) and 32 mL/min/kg in data set [3] (10-20 mg/kg).
`CC(=O)Nc1ccc(C(=O)NN2CCC(=O)N3CCC[C@@H](C(=O)N[C@H](C=O)CC(=O)O)N3C2=O)cc1` [Compound 1018, [3S(4S)]3-{7-[(4-Acetamido)benzamido]-6,10-Dioxo-1,2,3,4,7,8,9,10-octahydro-6H-pyridazino[1,2-a][1,2,4]-triazepine-4-carboxamido}-4-oxobutanoic acid] registered a melting point of 235 to 240 °C. The compound further came in with a clearance in data set [3] (Table 17) of 9.1 mL/min/kg. Also, the affinity on ICE (Table 17), expressed as Ki, was 170 nM.
Consider `O=C(O)C[C@H](NC(=O)[C@@H]1CCCN2C(=O)CC[C@H](NC(=O)c3ccccc3)C(=O)N12)C(=O)COC(=O)c1c(Cl)cccc1Cl` [Compound 217e, [3S(1S,9S)]3-(9-Benzoylamino-6,10-dioxo-1,2,3,4,7,8,9,10-octahydro-6H-pyridazino[1,2-a][1,2]-diazepine-1-carboxamido)-5-(2,6-dichlorobenzoyloxy)-4-oxopentanoic acid], for which the clearance in data set [1] (mouse, 25 mg/kg) is above 50 mL/min/kg. The “mean plasma concentration at 60-120 minutes” value in data set [1] (setting [4]) is below 0.2 µg/mL. In data set [1] (setting [5]), the concentration at 2 min is around 55 µg/mL. Moreover, the “inhibition of IL-1β secretion/production after IP administration” value in data set [2] (result in words) was “significant inhibition; also recorded: inhibits IL-1β production”.
In the case of `O=C[C@H](CC(=O)O)NC(=O)[C@@H]1CCCN2C(=O)CCN(NC(=O)c3ccccc3)C(=O)N12` [Compound 265, [3S(4S)]3-(7-Benzamido-6,10-dioxo-1,2,3,4,7,8,9,10-octahydro-6H-pyridazino[1,2-a][1,2,4]triazepine-4-carboxamido)-4-oxobutanoic acid], the clearance worked out at 23 mL/min/kg in data set [1] (mouse, 25 mg/kg) and 20 mL/min/kg in data set [3] (10-20 mg/kg). Also, the “IP % Inhibition” value in data set [2] (LPS-challenged mice) came to 30%. In data set [2] (LPS-challenged mice, PO), the “POS Inhibition” value is on record as 27%. Further, the affinity at ICE (Table 5) corresponds to a Ki of 47 nM.
In the case of `N#C[C@H](CC(=O)O)NC(=O)[C@@H]1CCCN2C(=O)CC[C@H](NC(=O)c3ccccc3)C(=O)N12` [Compound 232e, [3S(1S,9S)]9-(Benzoylamino)-3-[6,10-dioxo-1,2,3,4,7,8,9,10-octahydro-6H-pyridazino-[1,2-a][1,2]diazepine-1-carboxamido]-3-cyanopropanoic acid], the clearance in data set [1] (mouse, 25 mg/kg) stood at 22 mL/min/kg; in data set [3] (10-20 mg/kg), 26 mL/min/kg. For the same compound, the Ki on ICE (Table 5) is 1100 nM.
As to “[3S(1S,9S)]3-[(6,10-Dioxo-9-(methanesulphonylamino)-1,2,3,4,7,8,9,10-octahydro-6H-pyridazino[1,2-a][1,2]diazepine-1-carboxamido]-5-(5-methyl-3-phenylisoxazoyloxy)-4-oxopentanoic acid [505 b]”, the “Clearance Mouse, i.v.” value in data set [1] (mouse, i.v., Table 18) came out at 161 mL/min/kg. The “Clearance Rat, i.v.” value in data set [3] (Table 18) was 196 mL/min/kg.
`O=C(O)C[C@H](NC(=O)[C@@H]1CCCN2C(=O)CC[C@H](NC(=O)CCc3ccccc3)C(=O)N12)C(=O)CSCc1ccccc1Cl` [Compound 125b, [3S(1S,9S)]-3-(6,10-dioxo-1,2,3,4,7,8,9,10-octahydro)-9-(3-phenylpropionyl-amino)-6H-pyridazine[1,2-a][1,2]diazepine-1-carboxamido-5-(2-chlorophenyl-methylthio)-4-oxopentanoic acid]: the melting point is 76 to 80 °C.
On to `O=C1C[C@H](NC(=O)[C@@H]2CCCN3C(=O)CC[C@H](NC(=O)c4ccccc4)C(=O)N23)C(OCc2ccccc2)O1` (single isomer, unassigned) [Compound 2100n], for which the melting point fell in the range of 112 to 115 °C. For the same compound, the inhibition at 50 mg/kg in data set [2] (setting [9]) amounted to 64%. Besides, in data set [2] (setting [10]), the inhibition at 50 mg/kg turned out to be 73%. For the same compound, the inhibition at 50 mg/kg in data set [2] (setting [7]) stood at 9%. Also, the inhibition at 50 mg/kg in data set [2] (setting [8]) worked out at 21%. In addition, on ICE (Table 17), the Ki stood at 670 nM.
With `O=C1C[C@H](NC(=O)[C@@H]2CCCN3C(=O)CC[C@H](NC(=O)c4ccccc4)C(=O)N23)[C@H](OCc2ccccc2)O1` [Compound 2100o, [1S,9S(2R,3S)]9-Benzoylamino-N-(2-benzyloxy-5-oxotetrahydrofuran-3-yl)-6,10-dioxo-1,2,3,4,7,8,9,10-octahydro-6H-pyridazino[1,2-a][1,2]diazepine-1-carboxamide], the melting point was 115 to 117 °C. The inhibition at 50 mg/kg in data set [2] (setting [9]) came out at 68%. The inhibition at 50 mg/kg in data set [2] (setting [10]) turned out to be 64%. Further, the inhibition at 50 mg/kg in data set [2] (setting [7]) was 44%. For the same compound, the inhibition at 50 mg/kg in data set [2] (setting [8]) turned out to be 31%. On ICE (Table 17), this compound gave an inhibitory constant (Ki) of 670 nM.
As to `O=C[C@H](CC(=O)O)NC(=O)[C@@H]1CCCN2C(=O)CC[C@H](NC(=O)c3ccsc3)C(=O)N12` [Compound 410], the clearance in data set [1] (mouse, 25 mg/kg) came to 32 mL/min/kg; in data set [3] (10-20 mg/kg), 20 mL/min/kg. The Ki on ICE (Table 5) was found to be 17 nM.
On to `COC(=O)N[C@H]1CCC(=O)N2CCC[C@@H](C(=O)N[C@@H](CC(=O)O)C(=O)COC(=O)c3c(Cl)cccc3Cl)N2C1=O` [Compound 284, [3S(1S,9S)]5-(2,6-Dichlorobenzoyloxy)-3-[6,10-dioxo-9-(methoxycarbonyl)amino-1,2,3,4,7,8,9,10-octahydro-6H-pyridazino[1,2-a][1,2]diazepine-1-carboxamido]-4-oxopentanoic acid], for which the clearance in data set [1] (mouse, 25 mg/kg) amounted to 77 mL/min/kg; in data set [3] (10-20 mg/kg), 100 mL/min/kg.
